# “Also recorded” adds a separate entry of the source.
# Columns and labels:
# [1] = molecular target: Type 1 channels in cardiac myocytes; conditions: read-out: Ki of intracellular ATP; cited from earlier work
# [2] = tested on: Type 1 channels in pancreatic β-cells; conditions: read-out: Ki of intracellular ATP; cited from earlier work
# [3] = molecular target: T1, ROMK1 K+ channels (Rattus norvegicus, UniProt P35560); assay: Single channel patch clamp recording, inside-out patches excised from ROMK1 mRNA-injected Xenopus oocytes; assay type: cell-based
# T1 construct: This coding region encodes a protein of 391 amino acids; expressed in transfected cells; host or cells: Xenopus laevis oocytes injected with cRNA transcribed in vitro from ROMK1 cDNA (pSPORT1)
# T1 sequence (P35560 1-391): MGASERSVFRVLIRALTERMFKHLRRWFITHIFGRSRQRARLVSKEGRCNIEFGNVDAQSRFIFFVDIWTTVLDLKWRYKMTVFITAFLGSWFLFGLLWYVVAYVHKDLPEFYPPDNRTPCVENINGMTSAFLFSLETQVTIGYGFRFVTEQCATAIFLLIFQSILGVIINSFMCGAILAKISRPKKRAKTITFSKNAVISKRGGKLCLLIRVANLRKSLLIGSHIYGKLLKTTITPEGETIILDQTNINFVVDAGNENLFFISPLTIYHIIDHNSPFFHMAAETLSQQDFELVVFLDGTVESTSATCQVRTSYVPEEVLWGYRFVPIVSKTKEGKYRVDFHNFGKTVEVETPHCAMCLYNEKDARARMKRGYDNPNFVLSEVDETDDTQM
# Experimental: FIG. 2. Single channel characteristics of ATP-sensitive ROMK1 K^+ channels expressed in Xenopus oocytes. Channel activities were recorded in inside-out patches excised from oocyte membranes.
# Changes made in bath solution ATP concentration are indicated above the current recording: ATP-free (solid line), 0.025 mM ATP (dashed line). Recordings were taken at VH =-80 mV. Interruptions were introduced into the recording shown in order to display the entire current tracing. Expanded current tracings taken from the continuous recording are indicated by numbers and arrowheads.
# (E) The inhibitory effect of 2.5 mM ATP on channel activity. Changes in bath solution ATP concentration are indicated above the current recording; 0.025 mM ATP (dashed line), 2.5 mM ATP (solid line). […] The recording was taken at VH =-40 mV. Expanded current tracings taken from the recording at various time intervals are indicated by arrows and numbers. The pipette solution contained (mM): 150 or 50 KCl, 1 CaCl2, 1 MgCl2, 5 HEPES (pH 7.4). The bath solution contained (mM): 0,0.025 or 2.5 MgATP, 150 KCl, 1 MgCl2 , 5 EGTA, 5 HEPES (pH 7.4).
# Single channel recordings were obtained in oocytes injected with ROMK1 mRNA following vitelline membrane removal using standard patch clamp techniques to further characterize the properties of ROMK1 K^+ currents (FIG. 2). […] At negative membrane potentials, the amplitude of inward currents increased linearly with increasing hyperpolarization relative to Erev (Erev =O mV for symmetrical K^+ solutions). […] Similar inwardly rectifying currents were also observed in the cell-attached patch configuration. The K^+ selectivity of these currents was confirmed by varying the pipette solution K^+ concentration ([K^+ ]ext). Reversal potentials obtained with pipette solutions containing either 150 mM KCl or 50 mM KCl+100 mM NaCl were in complete agreement with the Nernstian predictions for Erev under these conditions (FIGS. 2B, 2C); the permeability ratio (PNa /PK) of 0.025 for these channels indicates high K^+ selectivity. […] Epithelial KATP channels (classified as Type 3) present in renal tubular cells from the thick ascending limb of Henle and the conical collecting duct (Bliech et al., Pflugers Arch. 415:449 (1990); Wang et al., Am. J. Physiol. 258:F244 (1990); Wang et al., Am. J. Physiol. 259:F494 (1990)) have single conductances of ~25-60 pS and share similar characteristics.
# The effect of intracellular ATP on ROMK1 currents was also investigated using the inside-out patch configuration. […] In contrast, channel activity was routinely maintained for 30 minutes or longer by excision of patches directly into a bath solution containing 25 μM MgATP. […] Channels with these properties and electrophysiological characteristics were never observed in either cell-attached or inside-out patches from H2 O-injected control oocytes; in contrast, several channels of this type were typically active in patches from ROMK1 mRNA-injected oocytes. The incidence of ROMK1 channels in patches was 94% (63 of 67 patches) which was consistent with the high channel density observed in these experiments. […] In channels of both types, channel rundown rapidly occurs in excised membrane patches; this loss of channel activity is reversed or prevented, at least partially, by the addition of MgATP (Ashcroft et al., Cellular Signalling 2:197 (1990); Ashcroft, F. M., Ann. Rev. Neurosci. 11:97 (1988); Nichols et al., Am. J. Physiol. 261:H1675 (1991); Wang et al., J. Gen. Physiol. 98:35 (1991)).
# [4] = molecular target: renal Type 3 KATP channels; conditions: read-out: Ki of intracellular ATP; cited from earlier work
# [5] = molecular target: Type 2 KATP channels (central neurons); conditions: central neurons (e.g. ventromedial hypothalamic nucleus), read-out: Ki of ATP; cited from earlier work
# [6] = tested on: Ba2+-sensitive potassium currents (IK(Ba)) expressed from rat kidney ISOM poly(A)+ RNA; assay: Two-electrode voltage clamp of Xenopus oocytes injected with rat kidney ISOM poly(A)+ RNA; assay type: cell-based; conditions: 5 mM Ba2+, [K+]ext = 50 mM, test potentials -80 to 0 mV
# Experimental: (A) Representative current tracings evoked by 450 ms voltage steps ranging from -80 mV to 0 mV in 20 mV increments from a holding potential (VH) of -60 mV in oocytes injected with ~25 ng ISOM poly(A)^+ RNA or 50 nl H2 O [K^+ ]ext =50 mM.
# (B) Current-voltage relationships of IK(Ba) in a representative ISOM poly(A)^+ RNA-injected oocyte ( ) and a H2 O-injected control (.circle.). […] Both current amplitudes and Vm were measured 75 ms after initiation of test pulses; Ba^2+ -sensitive current (KK(Ba)) amplitudes were obtained by determining the difference in current amplitudes before and after the addition of 5 mM Ba^2+ at each test potential and plotted as a function of observed Vm.
# (§1) Size-fractionated mRNA with a size of ~2-3 kb yielded a highly augmented mean inward IK(Ba) sixteen-fold greater than that of H2 O-injected controls when injected into oocytes (FIG. 1D) and was therefore used to construct a directional cDNA library in the vector pSPORT1. RNA transcribed in vitro from pooled clones using T7 RNA polymerase was injected into Xenopus oocytes and tested for IK(Ba) currents using two-electrode voltage clamping. Functional screening of cRNA led to the identification of a 2.1 kb cDNA, ROMK1.
# [7] = molecular target: T2, ROMK1 (Rattus norvegicus, UniProt P35560); assay: Two-electrode voltage clamp of Xenopus oocytes injected with ROMK1 mRNA; assay type: cell-based; conditions: 10 mM, [K+]ext = 50 mM, test potentials -60 to 0 mV
# T2 construct: This coding region encodes a protein of 391 amino acids; expressed in transfected cells; host or cells: Xenopus laevis oocytes injected with cRNA transcribed in vitro from ROMK1 cDNA (pSPORT1)
# T2 sequence (P35560 1-391): T1 sequence (P35560 1-391)
# Experimental: (E) Representative current tracings in oocytes injected with ~0.3 ng ROMK1 mRNA or H2 O evoked by 450 ms test pulses from a VH =-45 mV to test potentials from -60 mV to 0 mV in 20 mV increments in the presence or absence of 10 mM Ba2+, [K+ ]ext =50 mM. ROMK1 currents were blocked by 10 mM Ba^2+ at the test potentials used.
# as §1
smiles,measurement,setting,value
Nc1ncnc2c1ncn2[C@@H]1O[C@H](COP(=O)(O)OP(=O)(O)OP(=O)(O)O)[C@@H](O)[C@H]1O [ATP],Ki,[1],17 to 100 µM
same,Ki,[2],10 to 20 µM
same,effect on channel activity of high ATP at the cytosolic face of inside-out patches,"[3]; 1.0-2.5 mM ATP, patches initially excised into bath containing 25 μM ATP",rapid and marked inhibition of channel activity
same,effect of 2.5 mM ATP on channel activity,"[3]; ATP raised from 0.025 mM to 2.5 mM by puffer pipette, VH = -40 mV",inhibition of channel activity
same,restoration of channel activity following channel rundown,[3]; readdition of 25 μM (0.025 mM) ATP after ATP-free bath,Partial restoration of channel activity; also recorded: channel recovery
same,reversibility of inhibition by ATP,[3]; wash-out of the high ATP-containing solution,reversible
same,Ki,[4],200 to 500 µM
same,Ki,[5],2000 to 3000 µM
[Ba+2] [Ba^2+],inhibition of currents expressed in RNA-injected oocytes,[6],marked inhibition
same,inhibition (block) of ROMK1 currents,[7],blocked
Nc1ncnc2c1ncn2[C@@H]1O[C@H](COP(=O)(O)OP(=O)(O)OP(=O)(O)O)[C@@H](O)[C@H]1O [MgATP],time channel activity was maintained in excised patches,[3]; patches excised directly into bath solution containing 25 μM MgATP,≥ 30 min
CC[N+](CC)(CC)CC [TEA^+],inhibition (block) of ROMK1 currents,[7],no inhibition

# Reference: US5356775A, “Primary structure for functional expression from complementary DNA of a mammalian ATP-sensitive potassium channel” (Brigham & Women's Hospital, priority 1992, dated 1994)
